Results taken from paper PMC4995097, “Talin-KANK1 interaction controls the recruitment of cortical microtubule stabilizing complexes to focal adhesions” (eLife, 2016).

Tested on: HA-KANK1
Test: Streptavidin pull down of BioGFP-talin1 constructs with HA-KANK1, Western blot
Assay type: binding
Settings: HEK293T cells
Excerpt: BioGFP-tagged KANK1 mutants were constructed using PCR and pBioGFP-C1 vector as previously described ([van der Vaart et al., 2013]). Rescue constructs for BioGFP-tagged KANK1 were either based on the version previously described ([van der Vaart et al., 2013]) or a version obtained by PCR-based mutagenesis of the sequence […] to […]. mCherry-tagged paxillin construct was made by replacing GFP from pQC-GPXN ([Bouchet et al., 2011]) by mCherry (pmCherry-C1, Clontech). TagRFP-tagged paxillin construct was made by PCR-based amplification and cloning in pTagRFP-T-C1 (kind gift from Y. Mimori-Kiyosue, Riken Institute, Japan). HA-tagged KANK1 construct was generated by cloning KANK1 coding sequence into pMT2-SM-HA (gift of C. Hoogenraad, Utrecht University, The Netherlands). pLVX-IRES-Neo (pLVIN) vectors was constructed by cloning the IRES-neomycin resistance cassette from the pQCXIN plasmid (Clontech) into the pLVX-IRES-Puro plasmid (Clontech). […]
Streptavidin-based pull down assays of biotinylated proteins expressed using pBioGFP-C1 constructs transfected in HEK293T cells was performed and analyzed as previously described ([van der Vaart et al., 2013]). […] For RP-nanoLC-MS/MS, samples were resuspended in 10% formic acid (FA) / 5% DMSO and was analyzed using a Proxeon Easy-nLC100 (Thermo Scientific) connected to an Orbitrap Q-Exactive mass spectrometer. […]

GFP-talin1-G1404L: GFP-tagged mouse talin1 with single point mutation G1404L
interaction of talin1 constructs with KANK1 (in words): abrogated the interaction of full-length talin1 or its R7 fragment with full-length KANK1
